In US20230130132A1, “PHARMACEUTICAL COMPOSITIONS COMPRISING AMPHIPHILIC PEPTIDES AND METHODS OF USE THEREOF” (BONE SCI. BIO LTD., priority 2020, published 2023):
No end group written: not given here.

Key:
[1] = PFD5 sodium dissolved in HCl: peptide to acid mole ratio for stable hydrogel, pKa; type: physicochemical; conditions: aqueous HCl solution (hydrogel); 1% (w/v) PFD5; pH at which half of the Asp residues are assumed protonated
Procedure: Different mole ratios of PFD5 sodium to HCl were generated by dissolving the peptide in an HCl solution using a magnetic stirrer. Following mixing for a few minutes, hydrogel formation was tested (Table 2 and FIG. 1A-1B). […] At a 1:6 ratio, the stable hydrogel appeared opaquer.
At a 1:4 ratio, the stable hydrogel appeared opaquer.
At this peptide concentration, the mole ratio of the peptide to acid was determined to be 1:1.67 to afford a stable clear hydrogel (FIG. 1B).

[2] = pH of the composition; type: physicochemical; conditions: 5% w/v in deionized water, clear solution

pKa [1] | pH of solution [2] | Substance
~5.95 |  | PDFDFDFDFDFDP [PFD5, Pro-(Asp-Phe)5-Asp-Pro]
 | 1.93 | Doxycycline hyclate
